Measurements from ChEMBL document CHEMBL5385901, “Drug repurposing of propafenone to discover novel anti-tumor agents by impairing homologous recombination to delay DNA damage recovery of rare disease conjunctival melanoma” (Eur J Med Chem, 2023).
Active and inactive are the calls of the source. The rule behind the calls is not given here.

Tests used:
[1] = Antiproliferative activity against human CM-AS16 cells assessed as cell growth inhibition incubated for 72 hrs by CCK8 assay; type: functional, cell-based; details: CM-AS16, 72 h
CRMM-1 [2] = test: Antiproliferative activity against human CRMM-1 cells assessed as cell growth inhibition incubated for 72 hrs by CCK8 assay; type: functional, cell-based; details: CRMM-1, 72 h
[3] = Antiproliferative activity against human PIG1 cells assessed as cell growth inhibition incubated for 72 hrs by CCK8 assay; type: toxicity, cell-based
CRMM-1 [4] = test: Inhibition of homologous recombination in human CRMM-1 cells at 10 uM incubated for 12 hrs by real-time PCR analysis; type: functional, cell-based
[5] = Antiproliferative activity against human HL7702 cells assessed as cell growth inhibition incubated for 72 hrs by CCK8 assay; type: toxicity, cell-based; details: HL7702 (L02) cells
[6] = Antiproliferative activity against human CM2005.1 cells assessed as cell growth inhibition incubated for 72 hrs by CCK8 assay; type: functional, cell-based; details: CM2005.1, 72 h
CRMM-2 = test: Antiproliferative activity against human CRMM-2 cells assessed as cell growth inhibition incubated for 72 hrs by CCK8 assay; type: functional, cell-based; details: CRMM-2, 72 h
[7] = Toxicity in immunodeficient NCG mouse xenografted with human CRMM-1 cells assessed as pathomorphological change in liver at 10 mg/kg, po for 28 days administered five times per week by H and E staining based analysis; type: organism-based; details: in vivo, 672 h, time 28 day
CRMM-1 [8] = test: Antitumor activity against human CRMM-1 cells xenografted in immunodeficient NCG mouse assessed as mean tumor volume at 10 mg/kg, po for 28 days administered five times per week (reference value: 540 mm3); type: functional; details: time 28 day
[9] = Toxicity in immunodeficient NCG mouse xenografted with human CRMM-1 cells assessed as pathomorphological change in kidney at 10 mg/kg, po for 28 days administered five times per week by H and E staining based analysis; type: organism-based; details: in vivo, 672 h, time 28 day
CRMM-1 [10] = test: Antitumor activity against human CRMM-1 cells xenografted in immunodeficient NCG mouse assessed as tumor growth suppression at 10 mg/kg, po for 28 days administered five times per week relative to control; type: functional; details: time 28 day

## CCCNCCCOc1cc2c(cc1C(=O)CCCc1ccccc1)OCCO2
[1]
  IC50: 4.4 µM
CRMM-1 [2]
  IC50: 5.5 µM
[3]
  IC50 at 72 h: 15.4 µM
CRMM-1 [4]
  inhibition: inactive
[5]
  IC50 at 72 h: 27.7 µM
[6]
  IC50: 11.6 µM
CRMM-2
  IC50: 8.8 µM

## CCCCCNCCCOc1ccccc1C(=O)CCCc1ccccc1
[1]
  IC50: 5.5 µM
CRMM-1 [2]
  IC50: 2.3 µM
[3]
  IC50 at 72 h: 1.9 µM
CRMM-1 [4]
  inhibition: inactive
[5]
  IC50 at 72 h: 2.4 µM
[6]
  IC50: 3.8 µM
CRMM-2
  IC50: 1.3 µM

## C=C(CCc1ccccc1)c1ccccc1OCC(O)CNCCC (stereo not given)
[1]
  IC50: 4 µM
CRMM-1 [2]
  IC50: 6.3 µM
[3]
  IC50 at 72 h: 16.1 µM
CRMM-1 [4]
  inhibition: inactive
[5]
  IC50 at 72 h: 14.8 µM
[6]
  IC50: 9.1 µM
CRMM-2
  IC50: 9.5 µM

## Cn1cnc2c(F)c(Nc3ccc(Br)cc3F)c(C(=O)NOCCO)cc21 [BINIMETINIB]
[7]
  Activity: Non-Toxic
CRMM-1 [8]
  Activity: 270 mm3
[9]
  Activity: Non-Toxic
CRMM-1 [10]
  Activity: 41%
